In brackets after ≈: the same amount, converted by molar mass.
Key:
Canidae = details: subchronic; duration: 90 days; dermal; Dog Other; organ weight
Apis mellifera = details: acute, duration: 48 hours, mortality
Daphnia magna = details: chronic/long-term; duration: 21 days; reproduction
Folsomia candida = details: chronic/long-term; mortality
Neomysis kadiakensis = details: acute; duration: 48 hours; mortality
Tagia sp. = details: chronic/long-term; duration: 56 days; growth
Aphidius rhopalosiphi = experiment: LR50; higher = less toxic; details: not reported; mortality
Typhlodromus pyri = experiment: LR50; higher = less toxic; details: not reported; reproduction

SMILES: COC[C@H](C)N(C(=O)CCl)c1c(C)csc1C [Dimethenamid-P]
- NOAEL (Canidae): 4.3 mg/kg-day
- LD50 (Apis mellifera; dermal): 93.8 µg/piece
- LD50 (Apis mellifera; oral, unspecified): 119 µg/piece
- NOEC (Daphnia magna): 0.68 mg/L
- NOEC (Folsomia candida): 12.5 mg/kg
- LC50 (Neomysis kadiakensis): 3.2 µg/mL (≈ 11.6 µM)
- NOEC (Tagia sp.): 25.4 mg/kg
- LD50 (Rattus norvegicus; acute, oral, mortality): 466 mg/kg-day
- NOAEL (Rattus norvegicus; chronic, duration: 2 years, organ weight): 5 mg/kg-day
- NOAEL (Rattus norvegicus; developmental, development): 25 mg/kg-day
- LOAEL (Rattus norvegicus; reproduction developmental, food consumption): 25 mg/kg-day
- LC50 (Oncorhynchus mykiss; acute, duration: 96 hours, mortality): 2.6 µg/mL (≈ 9.43 µM)
- NOEC (Oncorhynchus mykiss; chronic/long-term, growth): 0.12 mg/L
- LD50 (Colinus virginianus; acute, oral, mortality): 1070 mg/kg-day
- LEL (Colinus virginianus; chronic, mortality): 107 mg/kg-day
- NOAEL (Colinus virginianus; reproduction developmental): 114 mg/kg-day
- LR50 (Aphidius rhopalosiphi): 66.3 mL/ha
- LR50 (Typhlodromus pyri): > 1.4e+06 mL/ha
